Tests used:
Assay type in all cases: in vivo
[1] = tested on: Abutilon theophrasti (ABUTH); test: Post-emergence herbicidal activity (B2); conditions: Test B2a; post-emergence application; rate 1000 g/ha; evaluated after 13 days; score 0-5
Procedure: (§1) Seeds of a variety of test species were sown in standard soil in pots: Triticum aestivium (TRZAW), Avena fatua (AVEFA), Alopecurus myosuroides (ALOMY), Echinochloa crus-galli (ECHCG), Lolium perenne (LOLPE), Zea Mays (ZEAMX), Abutilon theophrasti (ABUTH), Amaranthus retroflexus (AMARE) and Setaria faberi (SETFA). […] The test plants were then grown in a glasshouse under controlled conditions (at 24/16° C., day/night; 14 hours light; 65% humidity) and watered twice daily. After 13 days, the test was evaluated (5=total damage to plant; 0=no damage to plant).

[2] = tested on: Amaranthus retroflexus (AMARE); test: Post-emergence herbicidal activity (B2); conditions: Test B2a; post-emergence application; rate 1000 g/ha; evaluated after 13 days; score 0-5
Procedure: as §1

[3] = tested on: Lolium perenne (LOLPE); test: Post-emergence herbicidal activity (B2); conditions: Test B2a; post-emergence application; rate 1000 g/ha; evaluated after 13 days; score 0-5
Procedure: as §1

[4] = tested on: Zea Mays (ZEAMX); test: Post-emergence herbicidal activity (B2); conditions: Test B2a; post-emergence application; rate 1000 g/ha; evaluated after 13 days; score 0-5
Procedure: as §1

[5] = tested on: Echinochloa crus-galli (ECHCG); test: Post-emergence herbicidal activity (B2); conditions: Test B2a; post-emergence application; rate 1000 g/ha; evaluated after 13 days; score 0-5
Procedure: as §1

[6] = tested on: Setaria faberi (SETFA); test: Post-emergence herbicidal activity (B2); conditions: Test B2a; post-emergence application; rate 1000 g/ha; evaluated after 13 days; score 0-5
Procedure: as §1

[7] = tested on: Abutilon theophrasti (ABUTH); test: Pre-emergence herbicidal activity (B1); conditions: Test 1a; pre-emergence application; rate 1000 g/ha; evaluated after 13 days; score 0-5
Procedure: as §1

[8] = tested on: Amaranthus retroflexus (AMARE); test: Pre-emergence herbicidal activity (B1); conditions: Test 1a; pre-emergence application; rate 1000 g/ha; evaluated after 13 days; score 0-5
Procedure: as §1

[9] = tested on: Lolium perenne (LOLPE); test: Pre-emergence herbicidal activity (B1); conditions: Test 1a; pre-emergence application; rate 1000 g/ha; evaluated after 13 days; score 0-5
Procedure: as §1

[10] = tested on: Zea Mays (ZEAMX); test: Pre-emergence herbicidal activity (B1); conditions: Test 1a; pre-emergence application; rate 1000 g/ha; evaluated after 13 days; score 0-5
Procedure: as §1

[11] = tested on: Echinochloa crus-galli (ECHCG); test: Pre-emergence herbicidal activity (B1); conditions: Test 1a; pre-emergence application; rate 1000 g/ha; evaluated after 13 days; score 0-5
Procedure: as §1

[12] = tested on: Setaria faberi (SETFA); test: Pre-emergence herbicidal activity (B1); conditions: Test 1a; pre-emergence application; rate 1000 g/ha; evaluated after 13 days; score 0-5
Procedure: as §1

Cc1nc(-c2cncnc2)cnc1N [Compound G1]
1: damage to plant, ABUTH [1] | damage to plant, LOLPE [3] | damage to plant, ECHCG [5] | damage to plant, ZEAMX [10] | damage to plant, ECHCG [11]
2: damage to plant, AMARE [2] | damage to plant, ZEAMX [4] | damage to plant, SETFA [6] | damage to plant, SETFA [12]
0: damage to plant, ABUTH [7] | damage to plant, AMARE [8] | damage to plant, LOLPE [9]
